Test results taken from paper PMC10361207, “Cannabinoid and Opioid Receptor Affinity and Modulation of Cancer-Related Signaling Pathways of Machaeriols and Machaeridiols from Machaerium Pers” (Molecules, 2023).
Values after ≈ are worked out from the molar mass of the structure shown.

Tests used:
κ opioid receptor = molecular target: T1, κ opioid receptor (Homo sapiens, UniProt P41145); format: binding; details: 10 μM; [3H]-U-69,593
T1 construct: host or cells: HEK293, stably transfected; membranes
Experimental: (§1) HEK293 cells stably transfected with δ, κ and μ opioid subtypes were a generous gift from Roth Laboratories (University of North Carolina at Chapel Hill, N.C., USA). CB and opioid cells were maintained as previously described.
Membranes were purified by first washing the cells with cold PBS and scraping the cells into cold 50 mM Tris-HCl, pH 7.4 buffer, which was centrifuged at 5200× g for 10 min at 4 °C; next, the supernatant was discarded, and the pellet was washed with more Tris-HCl buffer, homogenized via a Sonic Dismembrator (Fisher Scientific, Pittsburgh, PA, USA) and then centrifuged at 24,000× g for 40 min at 4 °C. […] The total membrane protein concentration was measured using a Pierce BCA Protein Assay Kit (Thermo Scientific, Rockford, IL, USA) as per the manufacturer’s protocol.
Cannabinoid and opioid competitive radioligand binding assays were performed as previously described. […] Percent displacements were evaluated for all the cannabinoid and opioid subtypes with a triplicate of a fixed concentration (10 µg/mL for extracts and fractions and 10 μM for purified compounds). […] The percent displacement was calculated to represent the ability of the samples to displace the radioligand binding for a given cannabinoid or opioid receptor subtype.
The percent displacement was calculated as follows: 100−binding of compound−nonspecific binding/specific binding×100 […]

[1] = tested on: SK-MEL, KB, BT-549, SK-OV-3, HeLa, LLC-PK1 and Vero cells; experiment: Cytotoxicity, summary over the cell line panel; format: cell-based; details: highest tested concentration of 50 µg/mL; most of the cells
Experimental: (§2) In vitro cytotoxic activity was determined against five human cancer cell lines—malignant melanoma (SK-MEL), epidermal carcinoma oral (KB), ductal carcinoma breast (BT-549), ovary carcinoma (SKOV-3) and cervical (HeLa) cancer cells—and two non-cancerous kidney cell lines (LLC-PK1 and Vero). All cell lines were obtained from the American Type Culture Collection (ATCC, Rockville, MD, USA). Each assay was performed in 96-well tissue culture-treated microplates. The cells were seeded at a density of 25,000 cells/well and incubated for 24 h. Samples at different concentrations were added, and the cells were incubated again for 48 h. At the end of the incubation, the cell viability was determined using Neutral Red dye according to a modification of the procedure used by Borenfreund et al.. IC50 values were determined from dose–response curves of the percent growth inhibition against test concentrations. Doxorubicin was used as a positive control, while DMSO was used as the negative (vehicle) control.

μ opioid receptor = molecular target: T2, μ opioid receptor (Homo sapiens, UniProt P35372); experiment: biochemical; format: binding
T2 construct: host or cells: HEK293, stably transfected; membranes
Experimental: as §1
Membranes were purified by first washing the cells with cold PBS and scraping the cells into cold 50 mM Tris-HCl, pH 7.4 buffer, which was centrifuged at 5200× g for 10 min at 4 °C; next, the supernatant was discarded, and the pellet was washed with more Tris-HCl buffer, homogenized via a Sonic Dismembrator (Fisher Scientific, Pittsburgh, PA, USA) and then centrifuged at 24,000× g for 40 min at 4 °C. Finally, the pellet was re-suspended in cold 50 mM Tris-HCl buffer, aliquoted into 2 mL vials and stored at −80 °C. The total membrane protein concentration was measured using a Pierce BCA Protein Assay Kit (Thermo Scientific, Rockford, IL, USA) as per the manufacturer’s protocol.
Cannabinoid and opioid competitive radioligand binding assays were performed as previously described. Saturation experiments were performed for all the receptors to determine the receptor concentration and radioligand dissociation constant (Kd) for the membrane. Percent displacements were evaluated for all the cannabinoid and opioid subtypes with a triplicate of a fixed concentration (10 µg/mL for extracts and fractions and 10 μM for purified compounds). […] Control/test compounds were dissolved in DMSO at 10 μg/mL for extracts and fractions and 10 μM for purified compounds. […] The percent displacement was calculated to represent the ability of the samples to displace the radioligand binding for a given cannabinoid or opioid receptor subtype.
The percent displacement was calculated as follows: 100−binding of compound−nonspecific binding/specific binding×100
The competitive binding assays were performed using 12 serial dilutions of each compound ranging from 0.002 to 300 μM (control compounds were serially diluted from 10 μM to 0.06 nM). The cannabinoid assays were incubated for 90 min at 37 °C with gentle agitation. The opioid assays were incubated for 60 min at room temperature. Bound radioligands were collected on GF/C (cannabinoid) or GF/B plates (opioid) and washed 10 times with ice-cold 50 mM Tris-HCl (pH 7.4)/0.1% BSA (cannabinoid) or ice-cold 50 mM Tris-HCl (pH 7.4) (opioid). Radiodetection was measured with 50 µL (cannabinoid) or 25 µL (opioid) of MicroScint^TM-20 on a TopCount NXT HTS Microplate Scintillation Counter (PerkinElmer, Waltham, MA, USA). The IC50 and Ki values were calculated via a non-linear curve fit model using GraphPad Prism 5.0 software (GraphPad Software, Inc., San Diego, CA, USA). Each compound was tested in triplicate unless stated otherwise.

[2] = Cytotoxicity, Neutral Red, LLC-PK1; format: cell-based; details: pig, LLC-PK1 kidney epithelial cells, Na = not active up to 50 µg/mL
Experimental: as §2

[3] = Cytotoxicity, Neutral Red, Vero; format: cell-based; details: monkey, Vero kidney fibroblasts, Na = not active up to 50 µg/mL
Experimental: as §2

[4] = Cytotoxicity, summary over the cell line panel; format: cell-based; details: human, HeLa, SK-MEL, KB and BT-549 cells; read-out: Cytotoxicity IC50 values, span over cell lines
Experimental: as §2

Stat3 = experiment: Luciferase reporter assay, Stat3, T98G; format: cell-based; details: Homo sapiens; T98G cells; inducer IL6
Experimental: (§3) Hela cells (or T98G cells) from ATCC were plated in white opaque 384-well plates at a density of 4300 cells/well in 30 µL of growth medium (DMEM with 10% FBS and 1% Pen/Strep). The next day, the medium was aspirated and replaced with DMEM containing 1% FBS. The cells were transfected with respective plasmids using X-tremeGENE HP DNA transfection reagent (Roche). After 24 h of transfection, the test agents were added to the transfected cells, followed 30 min later by an inducing agent: interleukin 6 (IL-6) for Stat3, TGF-β for Smad, m-wnt3a for Wnt and PMA for AP-1, NF-κB, E2F, Myc, ETS, Notch and Hedgehog. No inducer was added for FoXO and pTK. After 4 h or 6 h of induction, the cells were lysed via the addition of the One-Glo luciferase assay system (Promega; Madison, WI). The light output was detected in a GloMax®-Multi+ Detection System with Instinct® Software (Promega E 8051). This luciferase assay determines if the test agent is able to inhibit the activation of cancer-related signaling pathways. In the case of FoxO, the enhanced luciferase activity via the test agent was assessed.

Smad2/3 = experiment: Luciferase reporter assay, Smad2/3, T98G; format: cell-based; details: Homo sapiens; T98G cells; inducer TGF-beta
Experimental: as §3

NF-κB = experiment: Luciferase reporter assay, NF-κB, T98G; format: cell-based; details: Homo sapiens; T98G cells; inducer PMA
Experimental: as §3

E2F = experiment: Luciferase reporter assay, E2F, T98G; format: cell-based; details: Homo sapiens; T98G cells; inducer PMA
Experimental: as §3

Myc = experiment: Luciferase reporter assay, Myc, T98G; format: cell-based; details: Homo sapiens; T98G cells; inducer PMA
Experimental: as §3

Notch = experiment: Luciferase reporter assay, Notch, T98G; format: cell-based; details: Homo sapiens; T98G cells; inducer PMA
Experimental: as §3

FoxO = experiment: Luciferase reporter assay, FoxO, T98G; format: cell-based; details: Homo sapiens; T98G cells; no inducer; dash: no activity detected; read-out: IC50, FoxO (None)
Experimental: as §3

Wnt = experiment: Luciferase reporter assay, Wnt, T98G; format: cell-based; details: T98G cells, inducer m-wnt3a, dash: not inhibited by more than 40% at 50 µmol/L
Experimental: as §3

Hedgehog = experiment: Luciferase reporter assay, Hedgehog, T98G; format: cell-based; details: Homo sapiens; T98G cells; inducer PMA
Experimental: as §3

T2 sequence (P35372 whole entry): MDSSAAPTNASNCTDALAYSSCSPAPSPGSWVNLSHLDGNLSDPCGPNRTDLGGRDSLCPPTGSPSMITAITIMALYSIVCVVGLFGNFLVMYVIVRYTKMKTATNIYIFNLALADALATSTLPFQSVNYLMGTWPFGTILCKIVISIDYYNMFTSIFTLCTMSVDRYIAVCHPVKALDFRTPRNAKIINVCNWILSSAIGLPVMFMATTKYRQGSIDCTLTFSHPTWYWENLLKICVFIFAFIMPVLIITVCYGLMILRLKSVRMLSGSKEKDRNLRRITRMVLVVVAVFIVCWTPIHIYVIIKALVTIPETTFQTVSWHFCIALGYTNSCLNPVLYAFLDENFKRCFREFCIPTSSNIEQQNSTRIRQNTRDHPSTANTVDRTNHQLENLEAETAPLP
T1 sequence (P41145 whole entry): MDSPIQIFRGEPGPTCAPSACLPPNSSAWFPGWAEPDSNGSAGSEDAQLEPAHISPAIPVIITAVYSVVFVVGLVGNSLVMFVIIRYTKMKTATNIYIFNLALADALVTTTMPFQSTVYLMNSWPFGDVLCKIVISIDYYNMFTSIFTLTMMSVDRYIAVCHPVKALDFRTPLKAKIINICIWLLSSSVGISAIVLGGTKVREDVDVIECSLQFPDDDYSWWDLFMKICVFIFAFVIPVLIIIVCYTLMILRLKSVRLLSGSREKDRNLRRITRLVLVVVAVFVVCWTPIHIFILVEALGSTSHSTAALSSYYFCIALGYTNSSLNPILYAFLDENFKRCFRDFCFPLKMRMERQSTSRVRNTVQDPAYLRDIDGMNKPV

Row | Structure (SMILES) | Percent displacement, ĸ (κ opioid receptor) [%] | Cytotoxicity (in words) [1] | Percent displacement, µ (μ opioid receptor; 10 μM, [3H]-DAMGO) [%] | Ki (μ opioid receptor; NA = not active, read-out: μ Ki ± SEM) [µM] | IC50 at 48 h [2] [µg/mL] | IC50 at 48 h [3] [µg/mL] | IC50 at 48 h [4] [µg/mL] | IC50 (Stat3) [µM] | IC50 (Smad2/3) [µM] | IC50 (NF-κB) [µM] | IC50 (E2F) [µM] | IC50 (Myc) [µM] | IC50 (Notch) [µM] | IC50 (FoxO) [µM] | IC50 (Wnt; Homo sapiens) [µM] | IC50, Wnt (m-wnt3a) (Wnt) | IC50 (Hedgehog) [µM]
1 | C[C@H]1CC[C@H]2[C@H](C1)c1c(O)cc(/C=C/c3ccccc3O)cc1OC2(C)C [compound 3, machaeriol C] | 6.4 | inactive | – | – | – | – | – | – | – | – | – | – | – | – | – | – | –
2 | C=C(C)[C@H]1CC[C@H](C)C[C@@H]1c1c(O)cc(/C=C/c2ccccc2O)cc1O [compound 6, machaeridiol B] | – | – | 27.6 | 4.73 ± 0.84 | 37 (≈ 102 µM) | 47 (≈ 129 µM) | 32 to 38 (≈ 87.8 to 104 µM) | 1.4 | 3 | 4 | 0.7 | 2 | 4.6 | > 50 | > 50 | inactive | 5
